Tests used:
Test in all cases: In vitro MIC, 2010 surveillance isolates
E. cloacae CeftazR = format: cell-based
MR CoNS = format: cell-based, Coagulase-Negative Staphylococcus
E. coli ESBL− = format: cell-based, Escherichia coli
K. oxytoca = format: cell-based
A. baumanii = format: cell-based
E. coli ESBL+ = format: cell-based, Escherichia coli
MS CoNS = format: cell-based, Coagulase-Negative Staphylococcus
MSSA = format: cell-based
K. pneumoniae ESBL+ = format: cell-based, Klebsiella pneumoniae
K. pneumoniae ESBL− = format: cell-based, Klebsiella pneumoniae
MRSA = format: cell-based
E. cloacae CeftazS = format: cell-based
Acinetobacter spp = format: cell-based
Enterobacter spp = format: cell-based

Substance: Gentamicin
- % R (resistance) (E. cloacae CeftazR; Asia/Pac, Eucast breakpoints): 39.7%
- MIC90 (E. cloacae CeftazR; Asia/Pac, N=63): > 8 µg/mL
- % R (resistance) (E. cloacae CeftazR; Europe, Eucast breakpoints): 43.1%
- MIC90 (E. cloacae CeftazR; Europe, N=72): > 8 µg/mL
- % R (resistance) (E. cloacae CeftazR; L. Amer, CLSI breakpoints): 38.1%
- MIC90 (E. cloacae CeftazR; L. Amer, N=42): > 8 µg/mL
- % R (resistance) (E. cloacae CeftazR; N America, CLSI breakpoints): 20.8%
- MIC90 (E. cloacae CeftazR; N America, N=77): > 8 µg/mL
- % R (resistance) (MR CoNS; Asia/Pac, Eucast breakpoints): 72.7%
- MIC90 (MR CoNS; Asia/Pac, N=77): > 8 µg/mL
- % R (resistance) (MR CoNS; Europe, Eucast breakpoints): 56.2%
- MIC90 (MR CoNS; Europe, N=510): > 8 µg/mL
- % R (resistance) (MR CoNS; L. Amer, CLSI breakpoints): 33.2%
- MIC90 (MR CoNS; L. Amer, N=301): > 8 µg/mL
- % R (resistance) (MR CoNS; N America, CLSI breakpoints): 22.6%
- MIC90 (MR CoNS; N America, N=461): > 8 µg/mL
- % R (resistance) (E. coli ESBL−; Asia/Pac, Eucast breakpoints): 16.3%
- MIC90 (E. coli ESBL−; Asia/Pac, N=282): > 8 µg/mL
- % R (resistance) (E. coli ESBL−; Europe, Eucast breakpoints): 7.4%
- MIC90 (E. coli ESBL−; Europe, N=1533): 2 µg/mL
- % R (resistance) (E. coli ESBL−; L. Amer, CLSI breakpoints): 9%
- MIC90 (E. coli ESBL−; L. Amer, N=389): 2 µg/mL
- % R (resistance) (E. coli ESBL−; N America, CLSI breakpoints): 7.7%
- MIC90 (E. coli ESBL−; N America, N=1172): 2 µg/mL
- % R (resistance) (K. oxytoca; Asia/Pac, Eucast breakpoints): 17.6%
- MIC90 (K. oxytoca; Asia/Pac, N=17): > 8 µg/mL
- % R (resistance) (K. oxytoca; Europe, Eucast breakpoints): 8.2%
- MIC90 (K. oxytoca; Europe, N=158): ≤ 1 µg/mL
- % R (resistance) (K. oxytoca; L. Amer, CLSI breakpoints): 12%
- MIC90 (K. oxytoca; L. Amer, N=25): > 8 µg/mL
- % R (resistance) (K. oxytoca; N America, CLSI breakpoints): 2.3%
- MIC90 (K. oxytoca; N America, N=177): ≤ 1 µg/mL
- % R (resistance) (A. baumanii; Asia/Pac, Eucast breakpoints): 80%
- MIC90 (A. baumanii; Asia/Pac, N=275): > 8 µg/mL
- % R (resistance) (A. baumanii; Europe, Eucast breakpoints): 61.4%
- MIC90 (A. baumanii; Europe, N=145): > 8 µg/mL
- % R (resistance) (A. baumanii; L. Amer, CLSI breakpoints): 52.4%
- MIC90 (A. baumanii; L. Amer, N=275): > 8 µg/mL
- % R (resistance) (A. baumanii; N America, CLSI breakpoints): 57.8%
- MIC90 (A. baumanii; N America, N=154): > 8 µg/mL
- % R (resistance) (E. coli ESBL+; Asia/Pac, Eucast breakpoints): 58.9%
- MIC90 (E. coli ESBL+; Asia/Pac, N=219): > 8 µg/mL
- % R (resistance) (E. coli ESBL+; Europe, Eucast breakpoints): 40.5%
- MIC90 (E. coli ESBL+; Europe, N=274): > 8 µg/mL
- % R (resistance) (E. coli ESBL+; L. Amer, CLSI breakpoints): 39.3%
- MIC90 (E. coli ESBL+; L. Amer, N=168): > 8 µg/mL
- % R (resistance) (E. coli ESBL+; N America, CLSI breakpoints): 26.1%
- MIC90 (E. coli ESBL+; N America, N=134): > 8 µg/mL
- % R (resistance) (MS CoNS; Asia/Pac, Eucast breakpoints): 33.3%
- MIC90 (MS CoNS; Asia/Pac, N=18): 4 µg/mL
- % R (resistance) (MS CoNS; Europe, Eucast breakpoints): 9.7%
- MIC90 (MS CoNS; Europe, N=185): ≤ 1 µg/mL
- % R (resistance) (MS CoNS; L. Amer, CLSI breakpoints): 7.5%
- MIC90 (MS CoNS; L. Amer, N=67): 8 µg/mL
- % R (resistance) (MS CoNS; N America, CLSI breakpoints): 2.1%
- MIC90 (MS CoNS; N America, N=191): ≤ 1 µg/mL
- % R (resistance) (MSSA; Asia/Pac, Eucast breakpoints): 8.4%
- MIC90 (MSSA; Asia/Pac, N=641): ≤ 1 µg/mL
- % R (resistance) (MSSA; Europe, Eucast breakpoints): 2.7%
- MIC90 (MSSA; Europe, N=2109): ≤ 1 µg/mL
- % R (resistance) (MSSA; L. Amer, CLSI breakpoints): 1.9%
- MIC90 (MSSA; L. Amer, N=590): ≤ 1 µg/mL
- % R (resistance) (MSSA; N America, CLSI breakpoints): 0.7%
- MIC90 (MSSA; N America, N=2373): ≤ 1 µg/mL
- % R (resistance) (K. pneumoniae ESBL+; Asia/Pac, Eucast breakpoints): 58.1%
- MIC90 (K. pneumoniae ESBL+; Asia/Pac, N=124): > 8 µg/mL
- % R (resistance) (K. pneumoniae ESBL+; Europe, Eucast breakpoints): 58.3%
- MIC90 (K. pneumoniae ESBL+; Europe, N=151): > 8 µg/mL
- % R (resistance) (K. pneumoniae ESBL+; L. Amer, CLSI breakpoints): 56.9%
- MIC90 (K. pneumoniae ESBL+; L. Amer, N=209): > 8 µg/mL
- % R (resistance) (K. pneumoniae ESBL+; N America, CLSI breakpoints): 46.3%
- MIC90 (K. pneumoniae ESBL+; N America, N=108): > 8 µg/mL
- % R (resistance) (K. pneumoniae ESBL−; Asia/Pac, Eucast breakpoints): 3.7%
- MIC90 (K. pneumoniae ESBL−; Asia/Pac, N=189): ≤ 1 µg/mL
- % R (resistance) (K. pneumoniae ESBL−; Europe, Eucast breakpoints): 2.2%
- MIC90 (K. pneumoniae ESBL−; Europe, N=361): ≤ 1 µg/mL
- % R (resistance) (K. pneumoniae ESBL−; L. Amer, CLSI breakpoints): 1.3%
- MIC90 (K. pneumoniae ESBL−; L. Amer, N=160): ≤ 1 µg/mL
- % R (resistance) (K. pneumoniae ESBL−; N America, CLSI breakpoints): 1.2%
- MIC90 (K. pneumoniae ESBL−; N America, N=671): ≤ 1 µg/mL
- % R (resistance) (MRSA; Asia/Pac, Eucast breakpoints): 58.6%
- MIC90 (MRSA; Asia/Pac, N=428): > 8 µg/mL
- % R (resistance) (MRSA; Europe, Eucast breakpoints): 23.1%
- MIC90 (MRSA; Europe, N=750): > 8 µg/mL
- % R (resistance) (MRSA; L. Amer, CLSI breakpoints): 35.4%
- MIC90 (MRSA; L. Amer, N=506): > 8 µg/mL
- % R (resistance) (MRSA; N America, CLSI breakpoints): 3.7%
- MIC90 (MRSA; N America, N=2508): ≤ 1 µg/mL
- % R (resistance) (E. cloacae CeftazS; Asia/Pac, Eucast breakpoints): 6%
- MIC90 (E. cloacae CeftazS; Asia/Pac, N=100): ≤ 1 µg/mL
- % R (resistance) (E. cloacae CeftazS; Europe, Eucast breakpoints): 1.1%
- MIC90 (E. cloacae CeftazS; Europe, N=183): ≤ 1 µg/mL
- % R (resistance) (E. cloacae CeftazS; L. Amer, CLSI breakpoints): 12.3%
- MIC90 (E. cloacae CeftazS; L. Amer, N=57): > 8 µg/mL
- % R (resistance) (E. cloacae CeftazS; N America, CLSI breakpoints): 0%
- MIC90 (E. cloacae CeftazS; N America, N=210): ≤ 1 µg/mL
- % R (resistance) (Acinetobacter spp; Asia/Pac, Eucast breakpoints): 33.3%
- % R (resistance) (Acinetobacter spp; Europe, Eucast breakpoints): 32.6%
- MIC90 (Acinetobacter spp; Europe, N=43): > 8 µg/mL
- % R (resistance) (Acinetobacter spp; L. Amer, CLSI breakpoints): 22.2%
- % R (resistance) (Acinetobacter spp; N America, CLSI breakpoints): 14.3%
- MIC90 (Acinetobacter spp; N America, N=42): > 8 µg/mL
- % R (resistance) (Enterobacter spp; Asia/Pac, Eucast breakpoints): 7.7%
- MIC90 (Enterobacter spp; Asia/Pac, N=52): ≤ 1 µg/mL
- % R (resistance) (Enterobacter spp; Europe, Eucast breakpoints): 4.9%
- MIC90 (Enterobacter spp; Europe, N=82): ≤ 1 µg/mL
- % R (resistance) (Enterobacter spp; L. Amer, CLSI breakpoints): 9.5%
- MIC90 (Enterobacter spp; L. Amer, N=42): 2 µg/mL
- MIC90 (Enterobacter spp; N America, N=101): ≤1 (1)
